The values that follow come from PMC3136501 (PLoS ONE, 2011).

The target in one test is T1, human OCT2 (Homo sapiens, UniProt O15244).
T1 construct: OCT2: NP_003049.2; expressed in transfected cells; host or cells: HEK293 (ATCC), stably transfected with pcDNA3.1(+)-SLC22A2
T1 sequence (O15244 1-555): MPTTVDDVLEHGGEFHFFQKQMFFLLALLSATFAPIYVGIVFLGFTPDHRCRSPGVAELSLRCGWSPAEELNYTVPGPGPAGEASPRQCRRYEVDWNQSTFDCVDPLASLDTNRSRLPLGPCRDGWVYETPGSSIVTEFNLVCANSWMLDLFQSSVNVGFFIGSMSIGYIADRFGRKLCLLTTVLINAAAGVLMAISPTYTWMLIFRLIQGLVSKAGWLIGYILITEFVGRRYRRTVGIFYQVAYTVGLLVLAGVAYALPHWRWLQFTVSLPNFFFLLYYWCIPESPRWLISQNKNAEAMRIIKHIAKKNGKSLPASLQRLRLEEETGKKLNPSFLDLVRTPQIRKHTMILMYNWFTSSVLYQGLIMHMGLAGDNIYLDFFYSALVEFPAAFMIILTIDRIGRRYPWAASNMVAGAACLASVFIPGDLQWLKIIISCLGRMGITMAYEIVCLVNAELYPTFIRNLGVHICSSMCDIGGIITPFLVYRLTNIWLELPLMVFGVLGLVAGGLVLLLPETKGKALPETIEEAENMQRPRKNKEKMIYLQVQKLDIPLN
The test can be described thus: Inhibition of OCT2-mediated metformin uptake in stably transfected HEK cells. To be noted: 5 µM [14C]metformin uptake, 5 sec, HEK-OCT2, means ± SE of 3 experiments. The format is cell-based. On the procedure:
SLC22A1 cDNA and SLC22A2 cDNA had been PCR-amplified from human liver and kidney, respectively, as reported elsewhere and cDNAs were provided by the German Cancer Research Center; the study and the use of the tissue were approved by the institutional review board of the German Cancer Center, Heidelberg, Germany. Since the data were analyzed anonymously, and tissues were left-over samples from diagnostic procedures, written informed consent had not been required and obtained. IRB specifically waived the need for consent due to the fact the human tissue material used was fully anonymized. SLC22A3 cDNA was amplified using SLC22A3-TrueClone (Origene, Rockville, MD, USA) as the template. SLC22A1 cDNA was cloned into the expression vector pcDNA3.1/Hygro(-) (Invitrogen, Darmstadt, Germany), SLC22A2 and SLC22A3 cDNA into pcDNA3.1(+) (Invitrogen). […] HEK cells were grown in DMEM (Sigma) supplemented with 10% fetal bovine serum (Sigma), 100 U⋅ml^−1 penicillin, and 100 µg⋅ml^−1 streptomycin (Lonza, Basel, Switzerland) at 37°C and 5% CO2. HEK cells were transfected with Metafectene Pro (Biontex, München, Germany). Selection of clones stably expressing OCT1 was carried out with 0.5 mg⋅ml^−1 hygromycin as described. Similarly, clones stably expressing OCT2 or OCT3 were selected with 800 µg⋅ml^−1 G418. HEK cells stably transfected with the empty pcDNA3.1(+) vector served as controls (HEK-Co). Cells were incubated with 5 mM butyrate 24 h before use to increase protein levels of recombinant transporters.
HEK cells (400000 cells/well) were seeded into 24-well cell culture plates (Greiner Bio-One, Frickenhausen, Germany) and grown for 48 h. Cell adherence was improved by coating plates with poly-L-lysine (Biochrom AG, Berlin, Germany) prior to cell plating. All uptake studies were carried out at 37°C as described. […] Uptake was stopped at indicated time points by removing the uptake buffer and immediately washing the cells 3 times with ice-cold uptake buffer. Cells were lysed with 0.2% SDS and intracellular radioactivity was determined by liquid scintillation counting (Hidex 300SL TDCR liquid scintillation counter, Turku, Finland).
OCT-specific metformin uptake was obtained by subtracting metformin uptake in the presence of 2 mM unlabeled 1-methyl-4-phenylpyridinium (MPP) from that in its absence. […] OCT-specific metformin uptake in the presence of a PPI was then calculated as percentage of that in the absence of the respective PPI (100% uninhibited). For each PPI concentration, 3 individual experiments each with 3 parallel measurements were performed. Apparent IC50 values for inhibition of metformin uptake by PPIs were calculated for each individual experiment by fitting the values to the Hill equation using GraphPad Prism 4 (GraphPad Software Inc., La Jolla, CA, USA). Values in Table 1 are given as the means ± SE of the 3 individual experiments.
Take `Cc1c(OCC(F)(F)F)ccnc1C[S+]([O-])c1nc2ccccc2[nH]1` (stereo not drawn) [Lansoprazole]: the IC50 is 9.5 ± 3.8 µM. The same measure, in the same setting: for `COc1ccc2[nH]c([S+]([O-])Cc3ncc(C)c(OC)c3C)nc2c1` (stereo not drawn) [Omeprazole] the value was 6.7 ± 2.1 µM. Still for that read-out and setting: for `COc1ccnc(C[S+]([O-])c2nc3ccc(OC(F)F)cc3[nH]2)c1OC` (stereo not drawn) [Pantoprazole] the value was 2.8 ± 0.9 µM. Turning to `COCCCOc1ccnc(C[S+]([O-])c2nc3ccccc3[nH]2)c1C` (stereo not drawn) [Rabeprazole], the IC50 was 5.7 ± 0.5 µM. On the same count and under the same terms, the figure for `COc1ccc2[nH]c([S+]([O-])Cc3ncc(C)c(OC)c3C)nc2n1` (stereo not drawn) [Tenatoprazole] is 20.3 ± 7.2 µM.

Staying with this test, now noted: 5 µM metformin, 2 mM unlabeled MPP.
For the compound `C[n+]1ccc(-c2ccccc2)cc1` [MPP, 1-methyl-4-phenylpyridinium], the “Metformin uptake by HEK-OCT2 in the presence of MPP” value is given as “almost completely absent”.
